# Read-outs that look alike come from different tables or passages of the source. Starred links: 1 amine or outer side, 2 acyl side, 3 side chain; linkers in the order of their positions; H or OH if unused. Positions of bridges follow the written chain, without caps; N, C: chain ends. Non-standard residues stand in square brackets, D forms with d. Residues, ends and D or L forms follow the SMILES beside them. Groups on a side chain read outwards from the residue. *: point of attachment. Trp(1-CH2COOH) = N[C@@H](Cc1cn(CC(=O)O)c2ccccc12)C(=O)O; NH(1-naphthyl) = c1ccc2c(N*)cccc2c1; X13 = O=[N+]([O-])c1ccc(NC(=S)*)cc1; Hyp = O=C(O)[C@@H]1C[C@@H](O)CN1; X35 = Cc1n[nH]c2c(NC(=S)*)cccc12; X10 = S=C(Nc1ccc(N2CCOCC2)cc1)*; X30 = FC(F)(F)c1ccc(N*)c(Cl)c1; X87 = FC(F)(F)c1ccccc1NC(=S)*; NMeNle = CCCC[C@H](NC)C(=O)O; X54 = S=C(Nc1cccc2ncccc12)*; NMeA = CN[C@@H](C)C(=O)O; X71 = c1cc2c(cc1N*)OCCO2; Dab = NCC[C@H](N)C(=O)O; X39 = CCCCOc1ccc(N*)cc1; Dap = NC[C@H](N)C(=O)O; X77 = Clc1cccc(N*)c1Cl; CO = O=C([*:1])[*:2]
# Target: T1, PD-1/PD-L1 (Homo sapiens, UniProt Q9NZQ7)
# T1 construct: TVMV protease site linker (C); made in house; host or cells: HEK293T cells
# Assay: PD-1/PD-L1 Homogenous Time-Resolved Fluorescence (HTRF) binding assay
# Summary of the method: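 HTRF read-out using europium cryptate anti-Ig (1 nM) and APC anti-His (20 nM) on extracellular-domain fusion proteins in dPBS/0.1% BSA/0.05% Tween-20. Inhibitor first incubated 15 min with 10 nM PD-L1-His, followed by 20 nM PD-1-Ig for another 15 min.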
# [1] = PD-L1-His 10 nM pre-incubated with inhibitor, PD-1-Ig 20 nM, read-out: HTRF IC50
# T1 sequence (Q9NZQ7 18-239): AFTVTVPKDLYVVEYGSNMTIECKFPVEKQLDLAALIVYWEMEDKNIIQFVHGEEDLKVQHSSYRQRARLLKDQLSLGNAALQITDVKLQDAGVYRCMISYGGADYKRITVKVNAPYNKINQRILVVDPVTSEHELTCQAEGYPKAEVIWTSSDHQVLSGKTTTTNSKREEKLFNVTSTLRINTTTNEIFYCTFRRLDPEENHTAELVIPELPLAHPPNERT
SMILES,IC50 [1],IC50
CCCC[C@H]1C(=O)N(C)[C@@H](CCCC)C(=O)N[C@@H](CC(C)C)C(=O)N[C@H](C(=O)NCC(N)=O)CSCC(=O)N[C@@H](Cc2ccc(O)cc2)C(=O)N(C)[C@@H](C)C(=O)N[C@@H](CC(N)=O)C(=O)N2CCC[C@H]2C(=O)N[C@@H](CNC(=S)Nc2ccccc2C(F)(F)F)C(=O)N[C@@H](CC(C)C)C(=O)N2C[C@H](O)C[C@H]2C(=O)N[C@@H](Cc2c[nH]c3ccccc23)C(=O)N[C@@H](CCNC(=S)Nc2ccccc2C(F)(F)F)C(=O)N[C@@H](Cc2cn(CC(=O)O)c3ccccc23)C(=O)N1C [Example 1016] ({CH2CO}-Y[NMeA]NP[Dap](X87)L[Hyp]W[Dab](X87)[Trp(1-CH2COOH)][NMeNle][NMeNle]LCG-NH2; thioether N-14),3 nM,
CCCC[C@H]1C(=O)N(C)[C@@H](CCCC)C(=O)N[C@@H](CC(C)C)C(=O)N[C@H](C(=O)NCC(N)=O)CSCC(=O)N[C@@H](Cc2ccc(O)cc2)C(=O)N(C)[C@@H](C)C(=O)N[C@@H](CC(N)=O)C(=O)N2CCC[C@H]2C(=O)N[C@@H](CNC(=O)Nc2ccc(C(F)(F)F)cc2Cl)C(=O)N[C@@H](CC(C)C)C(=O)N2C[C@H](O)C[C@H]2C(=O)N[C@@H](Cc2c[nH]c3ccccc23)C(=O)N[C@@H](CCNC(=O)Nc2ccc(C(F)(F)F)cc2Cl)C(=O)N[C@@H](Cc2cn(CC(=O)O)c3ccccc23)C(=O)N1C [Example 1116] ({CH2CO}-Y[NMeA]NP[Dap]([CO-X30])L[Hyp]W[Dab]([CO-X30])[Trp(1-CH2COOH)][NMeNle][NMeNle]LCG-NH2; thioether N-14),18 nM,
CCCC[C@H]1C(=O)N(C)[C@@H](CCCC)C(=O)N[C@@H](CC(C)C)C(=O)N[C@H](C(=O)NCC(N)=O)CSCC(=O)N[C@@H](Cc2ccc(O)cc2)C(=O)N(C)[C@@H](C)C(=O)N[C@@H](CC(N)=O)C(=O)N2CCC[C@H]2C(=O)N[C@@H](CNC(=O)Nc2cccc(Cl)c2Cl)C(=O)N[C@@H](CC(C)C)C(=O)N2C[C@H](O)C[C@H]2C(=O)N[C@@H](Cc2c[nH]c3ccccc23)C(=O)N[C@@H](CCNC(=O)Nc2cccc(Cl)c2Cl)C(=O)N[C@@H](Cc2cn(CC(=O)O)c3ccccc23)C(=O)N1C [Example 1084] ({CH2CO}-Y[NMeA]NP[Dap]([CO-X77])L[Hyp]W[Dab]([CO-X77])[Trp(1-CH2COOH)][NMeNle][NMeNle]LCG-NH2; thioether N-14),,2.6 nM
CCCC[C@H]1C(=O)N(C)[C@@H](CCCC)C(=O)N[C@@H](CC(C)C)C(=O)N[C@H](C(=O)NCC(N)=O)CSCC(=O)N[C@@H](Cc2ccc(O)cc2)C(=O)N(C)[C@@H](C)C(=O)N[C@@H](CC(N)=O)C(=O)N2CCC[C@H]2C(=O)N[C@@H](CNC(=S)Nc2cccc3ncccc23)C(=O)N[C@@H](CC(C)C)C(=O)N2C[C@H](O)C[C@H]2C(=O)N[C@@H](Cc2c[nH]c3ccccc23)C(=O)N[C@@H](CCN)C(=O)N[C@@H](Cc2cn(CC(=O)O)c3ccccc23)C(=O)N1C [Example 3018] ({CH2CO}-Y[NMeA]NP[Dap](X54)L[Hyp]W[Dab][Trp(1-CH2COOH)][NMeNle][NMeNle]LCG-NH2; thioether N-14),3.8 nM,
CCCC[C@H]1C(=O)N(C)[C@@H](CCCC)C(=O)N[C@@H](CC(C)C)C(=O)N[C@H](C(=O)NCC(N)=O)CSCC(=O)N[C@@H](Cc2ccc(O)cc2)C(=O)N(C)[C@@H](C)C(=O)N[C@@H](CC(N)=O)C(=O)N2CCC[C@H]2C(=O)N[C@@H](CNC(=S)Nc2ccc([N+](=O)[O-])cc2)C(=O)N[C@@H](CC(C)C)C(=O)N2C[C@H](O)C[C@H]2C(=O)N[C@@H](Cc2c[nH]c3ccccc23)C(=O)N[C@@H](CCN)C(=O)N[C@@H](Cc2cn(CC(=O)O)c3ccccc23)C(=O)N1C [Example 1024] ({CH2CO}-Y[NMeA]NP[Dap](X13)L[Hyp]W[Dab][Trp(1-CH2COOH)][NMeNle][NMeNle]LCG-NH2; thioether N-14),3.2 nM,
CCCCOc1ccc(NC(=O)NCC[C@@H]2NC(=O)[C@H](Cc3c[nH]c4ccccc34)NC(=O)[C@@H]3C[C@@H](O)CN3C(=O)[C@H](CC(C)C)NC(=O)[C@H](CNC(=O)Nc3ccc(OCCCC)cc3)NC(=O)[C@@H]3CCCN3C(=O)[C@H](CC(N)=O)NC(=O)[C@H](C)N(C)C(=O)[C@H](Cc3ccc(O)cc3)NC(=O)CSC[C@@H](C(=O)NCC(N)=O)NC(=O)[C@H](CC(C)C)NC(=O)[C@H](CCCC)N(C)C(=O)[C@H](CCCC)N(C)C(=O)[C@H](Cc3cn(CC(=O)O)c4ccccc34)NC2=O)cc1 [Example 1120] ({CH2CO}-Y[NMeA]NP[Dap]([CO-X39])L[Hyp]W[Dab]([CO-X39])[Trp(1-CH2COOH)][NMeNle][NMeNle]LCG-NH2; thioether N-14),8.5 nM,
CCCC[C@H]1C(=O)N(C)[C@@H](CCCC)C(=O)N[C@@H](CC(C)C)C(=O)N[C@H](C(=O)NCC(N)=O)CSCC(=O)N[C@@H](Cc2ccc(O)cc2)C(=O)N(C)[C@@H](C)C(=O)N[C@@H](CC(N)=O)C(=O)N2CCC[C@H]2C(=O)N[C@@H](CNC(=S)Nc2ccc(N3CCOCC3)cc2)C(=O)N[C@@H](CC(C)C)C(=O)N2C[C@H](O)C[C@H]2C(=O)N[C@@H](Cc2c[nH]c3ccccc23)C(=O)N[C@@H](CCN)C(=O)N[C@@H](Cc2cn(CC(=O)O)c3ccccc23)C(=O)N1C [Example 1055] ({CH2CO}-Y[NMeA]NP[Dap](X10)L[Hyp]W[Dab][Trp(1-CH2COOH)][NMeNle][NMeNle]LCG-NH2; thioether N-14),0.9 nM,
CCCC[C@H]1C(=O)N(C)[C@@H](CCCC)C(=O)N[C@@H](CC(C)C)C(=O)N[C@H](C(=O)NCC(N)=O)CSCC(=O)N[C@@H](Cc2ccc(O)cc2)C(=O)N(C)[C@@H](C)C(=O)N[C@@H](CC(N)=O)C(=O)N2CCC[C@H]2C(=O)N[C@@H](CNC(=O)Nc2ccc3c(c2)OCCO3)C(=O)N[C@@H](CC(C)C)C(=O)N2C[C@H](O)C[C@H]2C(=O)N[C@@H](Cc2c[nH]c3ccccc23)C(=O)N[C@@H](CCNC(=O)Nc2ccc3c(c2)OCCO3)C(=O)N[C@@H](Cc2cn(CC(=O)O)c3ccccc23)C(=O)N1C [Example 3059] ({CH2CO}-Y[NMeA]NP[Dap]([CO-X71])L[Hyp]W[Dab]([CO-X71])[Trp(1-CH2COOH)][NMeNle][NMeNle]LCG-NH2; thioether N-14),3 nM,
CCCC[C@H]1C(=O)N(C)[C@@H](CCCC)C(=O)N[C@@H](CC(C)C)C(=O)N[C@H](C(=O)NCC(N)=O)CSCC(=O)N[C@@H](Cc2ccc(O)cc2)C(=O)N(C)[C@@H](C)C(=O)N[C@@H](CC(N)=O)C(=O)N2CCC[C@H]2C(=O)N[C@@H](CNC(=S)Nc2cccc3c(C)n[nH]c23)C(=O)N[C@@H](CC(C)C)C(=O)N2C[C@H](O)C[C@H]2C(=O)N[C@@H](Cc2c[nH]c3ccccc23)C(=O)N[C@@H](CCNC(=S)Nc2cccc3c(C)n[nH]c23)C(=O)N[C@@H](Cc2cn(CC(=O)O)c3ccccc23)C(=O)N1C [Example 3052] ({CH2CO}-Y[NMeA]NP[Dap](X35)L[Hyp]W[Dab](X35)[Trp(1-CH2COOH)][NMeNle][NMeNle]LCG-NH2; thioether N-14),3.9 nM,
CCCC[C@H]1C(=O)N(C)[C@@H](CCCC)C(=O)N[C@@H](CC(C)C)C(=O)N[C@H](C(=O)NCC(N)=O)CSCC(=O)N[C@@H](Cc2ccc(O)cc2)C(=O)N(C)[C@@H](C)C(=O)N[C@@H](CC(N)=O)C(=O)N2CCC[C@H]2C(=O)N[C@@H](CNC(=O)Nc2cccc3ccccc23)C(=O)N[C@@H](CC(C)C)C(=O)N2C[C@H](O)C[C@H]2C(=O)N[C@@H](Cc2c[nH]c3ccccc23)C(=O)N[C@@H](CCN)C(=O)N[C@@H](Cc2cn(CC(=O)O)c3ccccc23)C(=O)N1C [Example 3040] ({CH2CO}-Y[NMeA]NP[Dap]([CO-NH(1-naphthyl)])L[Hyp]W[Dab][Trp(1-CH2COOH)][NMeNle][NMeNle]LCG-NH2; thioether N-14),,0.8 nM
